Data set [1] concerns subarachnoid hemorrhage. The note with it: human, in vivo.
Data set [2] concerns hemoglobin. As to the kind of experiment: S-nitrosylation of hemoglobin / blood NO after 3 days exposure to ENO (FIG. 5). The note with it: 3 days exposure to 20 ppm ENO. In kind it is in vivo.
Data set [3] deals with subarachnoid hemorrhage induced vasospasm. In words: Intraluminal filament-induced SAH in mice, ENO inhalation for 3 days (Background Example 2).
The subject of data set [4] is subarachnoid hemorrhage. In words: Laser Doppler blood flow in MCA territory and blood pressure 7 days after SAH (Background Example 3). In kind it is in vivo. The note with it: mice 7 days after SAH. How it is done:
Mice were subjected to subarachnoid hemorrhage induced by filament perforation of the right middle cerebral artery (MCA). Mice were allowed to recover for 7 days. The mice were then anesthetized and a laser Doppler flow probe was positioned over the brain within the territory perfused by the MCA and blood pressure was recorded. The animals were allowed to stabilize for 30 minutes (time=1-30 min).

Data set [5] in a line: Blood pressure with or without ENO inhalation in normal mice. The note with it: inhalation of 20 ppm, n=5 each group.
The subject of data set [6] is vasospasm. The settings on record: cited from earlier work.
Setting [7] is: SAH mice, 20 ppm ENO inhalation 3 days, p<0.01.
[8] abbreviates: inhalation at 20 ppm for 3 days.

Like-named read-outs stand apart in the source and are kept apart here.

Consider `CCCCON=O` [butyl nitrite], for which, in data set [1] (iv), the Cerebral infarction result is given as “prevented”, the “Mean arterial blood pressure reduction” value is listed as not above 10% and the Vasospasm entry is given as “does not occur”.

As for `CCON=O` [ENO, ethyl nitrite], the “Red blood cell lysate nitrosothiol (SNO) increase” value in data set [2] (FIG. 5A) is reported as “approximately 4 fold”. Moreover, the “Total red blood cell NO” value in data set [2] (FIG. 5B) is “increase”. Besides, in data set [2] (FIG. 5C), the “Change in serum total NO” value is reported as “negligible”. In addition, in data set [1], the Cerebral infarction entry is “prevented” and the Vasospasm result is on record as “does not occur”. For the same compound, the Rotarod performance entry in data set [3] (3 days post-SAH, inhalation of 20 ppm, p=0.06) was “a trend for improvement”. In addition, in data set [3] (setting [7]), the “Arterial narrowing (large vessel spasm)” value is reported as “improved” and the “Decreased forebrain ROD (small vessel spasm)” value is “improved”. For the same compound, in data set [3] (setting [8]), the “Subarachnoid hemorrhage induced vasospasm” value is given as “attenuated” and the Systemic hypotension result is given as “without causing systemic hypotension”. In addition, the “Effect in sham surgery mice” value in data set [3] (sham surgery, 20 ppm inhalation, n=5 each group, p=0.9) is “no effect”. For the same compound, in data set [4] (20 ppm ENO added to inspiratory gas), the Mean arterial pressure entry is “remained unchanged”. Besides, the “Blood flow increase (laser Doppler, MCA territory)” value in data set [4] (onset of 20 ppm ENO) came to 25%. In data set [5], the “Change in blood pressure” value was “did not cause a change”.

Take `O=NO` [sodium nitrite]: the “Vasospasm compared to control” value in data set [6] (both regimens: low dose infusion plus bolus, or higher dose infusion without bolus) was “reduced vasospasm”. Also, in data set [6] (higher dose infusion, no bolus, two of three cases), the “Vasospasm reduced to” value was 20%. Moreover, in data set [6] (lower dose infusion over 24 hours plus bolus, after bolus), the “Transient blood pressure reduction” value was “more than 15%”.

Values taken from patent US20110003012A1, “TREATING PATIENTS WITH SUBARACHNOID HEMORRHAGE” (Duke University, priority 2007, published 2011).
